{
  "source": "patent US9346812B2",
  "about": "“Substituted pyrrolopyrimidine compounds, compositions thereof, and methods of treatment therewith” (Signal Pharmaceutical LLC, priority 2013, dated 2016)",
  "data": [
    {"test_system": "CAL51 cell proliferation", "assay": "Cell Titer Glo Proliferation Assay (CAL51)", "type": "cell-based, human", "conditions": "Homo sapiens, CAL-51; CAL51 cell proliferation, 72 h, Cell Titer Glo luminescence; read-out: Act. Level", "experimental": "Cell Titer Glo Proliferation Assay. Triple negative breast cancer cell line CAL51 was purchased from DSMZ. […] Allcell lines were maintained in growth media consisting of 90% high glucose Dulbecco's Modified Eagle Medium or RPMI1640 (Invitrogen), 10% fetal bovine serum (Hyclone), and 2 mM L-glutamine (Invitrogen). […] After overnight culture, compound stock (30 mM) was diluted serially in DMSO, further diluted in growth media, and was added to each well as a 10× concentrated solution in a volume of 11 μL, mixed, and allowed to incubate with cells. The compound vehicle (DMSO) was maintained at a final concentration of 0.2% in all wells. After 72 h, 100 μL of Cell Titer Glo solution (Promega) was added to each well of the 96-well plate. The plate was placed on a shaker for 2 minutes. After 10 minutes incubation, the luminescence signal was detected with Envision microplate reader (Perkin Elmer).", "units": {"IC50": "nM"}, "values": [
      {"smiles": "CNC(=O)c1ccc(Nc2nc(O[C@H]3CC[C@H](O)CC3)c3c(-c4ccc(O)cc4)c[nH]c3n2)c(OC)c1", "note": "[Example 45, 4-(4-((1r,4R)-4-hydroxycyclo-hexyloxy)-5-(4-hydroxyphenyl)-7H-pyrrolo[2,3-d]pyrimidin-2-ylamino)-3-methoxy-N-methylbenzamide]", "IC50": "< 100"},
      {"smiles": "CNC(=O)c1ccc(Nc2nc(O[C@H]3CC[C@@H](O)CC3)c3c(-c4ccc(O)cc4)c[nH]c3n2)c(OC)c1", "note": "[Example 46, 4-(4-((1s,4s)-4-hydroxycyclo-hexyloxy)-5-(4-hydroxyphenyl)-7H-pyrrolo[2,3-d]pyrimidin-2-ylamino)-3-methoxy-N-methylbenzamide]", "IC50": "< 100"},
      {"smiles": "CNC(=O)c1ccc(Nc2nc(OC3CCCC3)c3c(-c4cccc(C(C)(C)O)c4)c[nH]c3n2)c(OC)c1", "note": "[Example 47, 4-(4-(cyclopentyloxy)-5-(3-(2-hydroxypropan-2-yl)phenyl)-7H-pyrrolo[2,3-d]pyrimidin-2-ylamino)-3-methoxy-N-methylbenzamide]", "IC50": "400 to 1000"},
      {"smiles": "CNC(=O)c1ccc(Nc2nc(OC3CCCC3)c3c(-c4ccc(-c5ncc[nH]5)cc4)c[nH]c3n2)c(OC)c1", "note": "[Example 48, 4-(5-(4-(1H-imidazol-2-yl)phenyl)-4-(cyclopentyloxy)-7H-pyrrolo[2,3-d]pyrimidin-2-ylamino)-3-methoxy-N-methylbenzamide]", "IC50": "< 100"},
      {"smiles": "CNC(=O)c1ccc(Nc2nc(OC3CCCC3)c3c(-c4ccc(C(C)(C)O)cc4)c[nH]c3n2)c(OC)c1", "note": "[Example 49, 4-(4-(cyclopentyloxy)-5-(4-(2-hydroxypropan-2-yl)phenyl)-7H-pyrrolo[2,3-d]pyrimidin-2-ylamino)-3-methoxy-N-methylbenzamide]", "IC50": "100 to 400"},
      {"smiles": "COc1cc(-c2cn[nH]c2)ccc1Nc1nc(OC2CCCC2)c2c(-c3ccc(O)cc3)c[nH]c2n1", "note": "[Example 50, 4-(4-(cyclopentyloxy)-2-(2-methoxy-4-(1H-pyrazol-4-yl)phenylamino)-7H-pyrrolo[2,3-d]pyrimidin-5-yl) phenol]", "IC50": "< 100"},
      {"smiles": "CNC(=O)c1ccc(Nc2nc(OC3CCCC3)c3c(-c4cncc(O)c4)c[nH]c3n2)c(OC)c1", "note": "[Example 51, 4-(4-(cyclopentyloxy)-5-(5-hydroxypyridin-3-yl)-7H-pyrrolo [2,3-d]pyrimidin-2-ylamino)-3-methoxy-N-methylbenzamide]", "IC50": "< 100"},
      {"smiles": "COc1cc(CN)ccc1Nc1nc(OC2CCCC2)c2c(-c3ccc(O)cc3)c[nH]c2n1", "note": "[Example 52, 4-(2-(4-(aminomethyl)-2-methoxyphenylamino)-4-(cyclopentyloxy)-7H-pyrrolo[2,3-d]pyrimidin-5-yl)phenol]", "IC50": "100 to 400"},
      {"smiles": "COc1nc(Nc2ccc(C(=O)N(C)C)cc2Cl)nc2[nH]cc(-c3ccc(-c4nnc[nH]4)cc3)c12", "note": "[Example 53, 4-(5-(4-(4H-1,2,4-triazol-3-yl)phenyl)-4-methoxy-7H-pyrrolo [2,3-d]pyrimidin-2-ylamino)-3-chloro-N,N-dimethylbenzamide]", "IC50": "100 to 400"},
      {"smiles": "CNC(=O)c1ccc(Nc2nc(OC3CCCC3)c3c(-c4ccc(OC)c(F)c4)c[nH]c3n2)c(OC)c1", "note": "[Example 54, 4-(4-(cyclopentyloxy)-5-(3-fluoro-4-methoxyphenyl)-7H-pyrrolo[2,3-d]pyrimidin-2-ylamino)-3-methoxy-N-methylbenzamide]", "IC50": "100 to 400"},
      {"smiles": "CNC(=O)c1ccc(Nc2nc(OC3CCCC3)c3c(-c4cccc(NC(C)=O)c4)c[nH]c3n2)c(OC)c1", "note": "[Example 56, 4-(5-(3-acetamidophenyl)-4-(cyclopentyloxy)-7H-pyrrolo[2,3-d]pyrimidin-2-ylamino)-3-methoxy-N-methylbenzamide]", "IC50": "< 100"},
      {"smiles": "CNC(=O)c1ccc(Nc2nc(OC3CCCC3)c3c(-c4cccc(NS(C)(=O)=O)c4)c[nH]c3n2)c(OC)c1", "note": "[Example 57, 4-(4-(cyclopentyloxy)-5-(3-(methylsulfonamido)phenyl)-7H-pyrrolo[2,3-d]pyrimidin-2-ylamino)-3-methoxy-N-methylbenzamide]", "IC50": "100 to 400"},
      {"smiles": "CNC(=O)c1ccc(Nc2nc(OC3CCCC3)c3c(-c4cccnc4)c[nH]c3n2)c(OC)c1", "note": "[Example 58, 4-(4-(cyclopentyloxy)-5-(pyridin-3-yl)-7H-pyrrolo[2,3-d]pyrimidin-2-ylamino)-3-methoxy-N-methylbenzamide]", "IC50": "< 100"},
      {"smiles": "CNC(=O)c1cccc(-c2c[nH]c3nc(Nc4ccc(C(=O)NC)cc4OC)nc(OC4CCCC4)c23)c1", "note": "[Example 59, 4-(4-(cyclopentyloxy)-5-(3-(methylcarbamoyl)phenyl)-7H-pyrrolo[2,3-d]pyrimidin-2-ylamino)-3-methoxy-N-methylbenzamide]", "IC50": "100 to 400"},
      {"smiles": "CNC(=O)c1ccc(Nc2nc(OC3CCCC3)c3c(-c4cccc(OC)c4)c[nH]c3n2)c(OC)c1", "note": "[Example 60, 4-(4-(cyclopentyloxy)-5-(3-methoxyphenyl)-7H-pyrrolo[2,3-d]pyrimidin-2-ylamino)-3-methoxy-N-methylbenzamide]", "IC50": "100 to 400"},
      {"smiles": "CNC(=O)c1ccc(Nc2nc(OC3CCCC3)c3c(-c4ccc(S(C)(=O)=O)cc4)c[nH]c3n2)c(OC)c1", "note": "[Example 61, 4-(4-(cyclopentyloxy)-5-(4-(methyl-sulfonyl)phenyl)-7H-pyrrolo[2,3-d]pyrimidin-2-ylamino)-3-methoxy-N-methylbenzamide]", "IC50": "< 100"},
      {"smiles": "CNC(=O)c1ccc(Nc2nc(OC3CCCC3)c3c(-c4ccc(NC(C)=O)cc4)c[nH]c3n2)c(OC)c1", "note": "[Example 62, 4-(5-(4-acetamidophenyl)-4-(cyclopentyloxy)-7H-pyrrolo[2,3-d]pyrimidin-2-ylamino)-3-methoxy-N-methylbenzamide]", "IC50": "< 100"},
      {"smiles": "CNC(=O)c1ccc(Nc2nc(OC3CCCC3)c3c(-c4cccc(S(C)(=O)=O)c4)c[nH]c3n2)c(OC)c1", "note": "[Example 63, 4-(4-(cyclopentyloxy)-5-(3-(methyl-sulfonyl)phenyl)-7H-pyrrolo[2,3-d]pyrimidin-2-ylamino)-3-methoxy-N-methylbenzamide]", "IC50": "< 100"},
      {"smiles": "CNC(=O)c1ccc(Nc2nc(OC3CCCC3)c3c(-c4ccc(OC)c(OC)c4)c[nH]c3n2)c(OC)c1", "note": "[Example 64, 4-(4-(cyclopentyloxy)-5-(3,4-dimethoxyphenyl)-7H-pyrrolo[2,3-d]pyrimidin-2-ylamino)-3-methoxy-N-methylbenzamide]", "IC50": "100 to 400"},
      {"smiles": "CNC(=O)c1ccc(Nc2nc(OC3CCCC3)c3c(-c4cccc(N)c4)c[nH]c3n2)c(OC)c1", "note": "[Example 65, 4-(5-(3-aminophenyl)-4-(cyclopentyloxy)-7H-pyrrolo[2,3-d]pyrimidin-2-ylamino)-3-methoxy-N-methylbenzamide]", "IC50": "< 100"},
      {"smiles": "CNC(=O)c1ccc(Nc2nc(OC3CCCC3)c3c(-c4ccncc4)c[nH]c3n2)c(OC)c1", "note": "[Example 66, 4-(4-(cyclopentyloxy)-5-(pyridin-4-yl)-7H-pyrrolo[2,3-d]pyrimidin-2-ylamino)-3-methoxy-N-methylbenzamide]", "IC50": "< 100"},
      {"smiles": "COc1nc(Nc2ccc(C(=O)N3CCOCC3)cc2Cl)nc2[nH]cc(-c3ccc(-c4nnc[nH]4)cc3)c12", "note": "[Example 68, (4-(5-(4-(4H-1,2,4-triazol-3-yl)phenyl)-4-methoxy-7H-pyrrolo [2,3-d]pyrimidin-2-ylamino)-3-chlorophenyl)(morpholino) methanone]", "IC50": "100 to 400"},
      {"smiles": "Cc1nc2ccc(-c3c[nH]c4nc(Nc5ccc(C(=O)N(C)C)cc5C)nc(NC5CCOCC5)c34)cc2o1", "note": "[Example 69, N,N,3-trimethyl-4-(5-(2-methylbenzo[d]oxazol-6-yl)-4-(tetrahydro-2H-pyran-4-ylamino)-7H-pyrrolo[2,3-d]pyrimidin-2-ylamino)benzamide]", "IC50": "100 to 400"},
      {"smiles": "Cc1nc2ccc(-c3c[nH]c4nc(Nc5ccc(C(=O)N(C)C)cc5C)nc(OC5CCOCC5)c34)cc2o1", "note": "[Example 70, N,N,3-trimethyl-4-(5-(2-methylbenzo[d]oxazol-6-yl)-4-(tetrahydro-2H-pyran-4-yloxy)-7H-pyrrolo[2,3-d]pyrimidin-2-ylamino)benzamide]", "IC50": "100 to 400"},
      {"smiles": "COc1nc(Nc2ccc(C(=O)N(C)C)cc2Cl)nc2[nH]cc(-c3ccc4[nH]c(N)nc4c3)c12", "note": "[Example 71, 4-(5-(2-amino-1H-benzo[d]imidazol-5-yl)-4-methoxy-7H-pyrrolo[2,3-d]pyrimidin-2-ylamino)-3-chloro-N,N-dimethylbenzamide]", "IC50": "100 to 400"},
      {"smiles": "CNc1nc(Nc2ccc(C(=O)N(C)C)cc2Cl)nc2[nH]cc(-c3ccc(-c4nnc[nH]4)cc3)c12", "note": "[Example 72, 4-(5-(4-(4H-1,2,4-triazol-3-yl)phenyl)-4-(methylamino)-7H-pyrrolo[2,3-d]pyrimidin-2-ylamino)-3-chloro-N,N-dimethylbenzamide]", "IC50": "400 to 1000"},
      {"smiles": "COc1nc(Nc2ccc(C(=O)N(C)C)cc2C)nc2[nH]cc(-c3ccc4nc(C)oc4c3)c12", "note": "[Example 73, 4-(4-methoxy-5-(2-methylbenzo[d]oxazol-6-yl)-7H-pyrrolo[2,3-d]pyrimidin-2-ylamino)-N,N,3-trimethylbenzamide]", "IC50": "1000 to 10000"},
      {"smiles": "Cc1nc2ccc(-c3c[nH]c4nc(Nc5ccc(C(=O)N6CCNCC6)cc5C)nc(NC5CCOCC5)c34)cc2o1", "note": "[Example 74, (3-methyl-4-(5-(2-methylbenzo[d]oxazol-6-yl)-4-(tetrahydro-2H-pyran-4-ylamino)-7H-pyrrolo [2,3-d]pyrimidin-2-ylamino)phenyl) (piperazin-1-yl)methanone]", "IC50": "100 to 400"},
      {"smiles": "CNC(=O)c1ccc(Nc2nc(OC3CCCC3)c3c(-c4ccc(N(C)C)cc4)c[nH]c3n2)c(OC)c1", "note": "[Example 75, 4-(4-(cyclopentyloxy)-5-(4-(di-methylamino)phenyl)-7H-pyrrolo [2,3-d]pyrimidin-2-ylamino)-3-methoxy-N-methylbenzamide]", "IC50": "< 100"}
    ]}
  ]
}
